# Test results reported in patent US6413948B1, “Pharmaceutical compositions and methods of effecting a neuronal activity in an animal using naaladase inhibitors” (Guilford Pharmaceuticals Inc., priority 1996, dated 2002).
# Read-outs that look alike come from different tables or passages of the source. Residues, ends and D or L forms follow the SMILES beside them.
# Key:
# NAALADase [1] = molecular target: T1, NAALADase (UniProt P70627); test: In vitro inhibition of NAALADase activity; format: biochemical; conditions: for Ki: [3H]Glu liberated from [3H]NAAG, synaptosomal protein, 15 minutes at 37° C.; for NAALADase inhibiting activity (comparison in words): compared with 2-(phosphonomethyl)pentanedioic acid
# T1 construct: Ki; other: compared with 2-(phosphonomethyl)pentanedioic acid
# Procedure: Various compounds of formula I were tested for in vitro inhibition of NAALADase activity.
# Substrate and product were resolved by anion-exchange liquid chromatography. […] Quisqualate (100 μM) was included in parallel assay tubes to confirm the specificity of the measurements.
# MPTP lesioned mice = test: In vivo assay on Parkinson's Disease (MPTP lesioned mice, TH immunostaining); set-up: species or system CD1 white mice
# Procedure: MPTP lesioning of dopaminergic neurons in mice was used as an animal model of Parkinson's Disease, as described by Steiner, Proc. Natl. Acad. Sci., Vol. 94, pp. 2019-2024 (March 1997). In brief, four week old male CD1 white mice were dosed IP with 30 mg/kg of MPTP for 5 days. […] At 18 days following MPTP treatment, the mice were sacrificed and their brains were removed and sectioned. Immunostaining was performed on saggital and coronal brain sections using anti-tyrosine hydroxylase (TH) antibodies to quantitate survival and recovery of dopaminergic neurons.
# cortical cell cultures [2] = test: In vitro toxicity of NAAG; format: cell-based, rats; conditions: 20 minutes
# Procedure: See TABLE VII for the Dissociated Culture Protocol as used herein. […] Experiments are performed after 21 days in cultures.
# At the end of exposure, the cells are washed once with HEPES buffered saline solution and then replaced with serum free modified Earle's basal medium. The cultures are then returned to the CO2 incubator for 24 hour recovery.
# This control measurement is subtracted from each experimental point.
# NAALADase [3] = conditions: NAAG as substrate of NAALADase; cited from earlier work
# [4] = tested on: spinal cord organotypic cultures; test: Spinal cord culture model of ALS (THA toxicity, ChAT activity); format: cell-based, rats; conditions: Table XII; THA without inhibitor
# Procedure: Organotypic cultures were prepared from lumbar spinal cord of 8 day old rats, as described by Rothstein et al., J. Neurochem., Vol. 65, No. 2 (1995), and Rothstein et al., Proc. Natl. Acad. Sci. USA, Vol. 90, pp. 6591-6595 (July 1993). In brief, lumbar spinal cords were removed and sliced into 300 […] sections, and five slices were placed on Millipore CM semipermeable 30-mm-diameter membrane inserts. The inserts were placed on 1 ml of culture medium in 35-mm-diameter culture wells. Culture medium consisted of 50% minimal essential medium and phosphate-free HEPES (25 mM), 25% heat-inactivated horse serum, and 25% Hanks' balanced salt solution (GIBCO) supplemented with D-glucose (25.6 mg/ml) and glutamine (2 mM), at a final pH of 7.2. Antibiotic and antifungal agents were not used. Cultures were incubated at 37° C. in 5% CO2 containing humidified environment (Forma Scientific). Culture medium, along with any added pharmacological agents, was changed twice weekly.
# Drugs were incubated for an additional 13 to 20 days with the 100 μM THA. At the end of this period, cultures were collected assayed for ChAT activity as described below.
# To determine choline acetyltransferase (ChAT) activity, the spinal cord tissues in each dish (five slices) were pooled and frozen (−75° C.) until assay. ChAT activity was measured radiometrically by described methods using [^3H] acetyl-CoA (Amersham; Fonnum, 1975). Protein content of tissue homogenate was determined by a Coomassi Protein Assay kit (Pierce, Rockford, Ill.).
# cortical cell cultures [5] = test: In vitro assay of NAALADase inhibitors on ischemia (potassium cyanide and 2-deoxyglucose, LDH release); format: cell-based, rats; conditions: Rattus norvegicus, 1 h, read-out: EC50 (concentration required to cause a 50% reduction in glutamate toxicity following an ischemic insult)
# Procedure: The methods for this assay are described in detail below.
# Dissociated cortical cell cultures are prepared using the papain-dissociation method of Heuttner and Baughman (1986) as modified by Murphy and Baraban (1990). […] Fetuses of embryonic day 17 are removed from timed pregnancy rats (Harlan Sprague Dawley). The cortex is rapidly dissected out in Dulbecco's phosphate-buffered saline, stripped of meninges, and incubated in a papain solution for 15 minutes at 37° C. The tissue is then mechanically triturated and pelleted at 500 g (1000-2000 rpm on swinging bucket Beckman). The pellet is resuspended in a DNAase solution, triturated with a 10 ml pipette ×15-20, layered over a “10×10” solution containing albumin and trypsin inhibitor (see TABLE VII for an example of a “10×10” solution), repelleted, and resuspended in a plating medium containing 10% fetal bovine serum (HyClone A-1111-L), 5% heat-inactivated Equine serum (HyClone A-3311-L), and 84% modified Earle's basal medium (MEM) (Gibco 51200-020) with high glucose (4.5 g/L), and 1 g/L NaHCO3. Each 24-well plate is pretreated with poly-D-lysine (0.5 ml/well of 10 μg/ml) for 1 h and rinsed with water before plating. Cultures are plated at 2.5×10^6 cells/ml with each well of a 24 well plate receiving 500 μl/well. Alternatively, 35 mm dishes can be plated at 2 ml/dish, 6 well plates at 2 ml/well, or 12 well plates at 1 ml/well. After plating, 50% of the medium is changed every 3-4 days with growth serum containing 5% heat-inactivated Equine serum (HyClone A3111-L), 95% modified Earle's basal medium (MEM)(Gibco 51200-020), and 1% L-Glutamine (Gibco 25030-081). Experiments are performed after 21 days in cultures. Cultures are maintained in a 5% CO2 atmosphere at 37° C.
# Twenty-one to twenty-four days following the initial cortical cell plating, the experiment is performed. The cultures are washed three times in HEPES buffered saline solution containing no phosphate. […] At the end of 24 hours, the cultures are analyzed for release of the cytosolic enzyme lactate dehydrogenase (LDH), a standard measure of cell lysis. LDH measurements are performed according to the method of Koh and Choi, J. Neuroscience Methods (1987).
# Release of the cytosolic enzyme lactate dehydrogenase (LDH), a standard measure of cell lysis, is used to quantify injury (Koh and Choi, 1987). LDH-activity measurements are normalized to control for variability between culture preparations (Koh and Choi, 1987). […] This control measurement is subtracted from each experimental point. […] Only main effects of NAALADase inhibitors are considered; interactions between dose and condition are not examined statistically.
# [6] = treated during ischemic insult and for one hour thereafter
compound,measurement,setting,value
Cc1cccc(P(=O)(O)CC(CCC(=O)O)C(=O)O)c1 (centres unmarked),Ki,NAALADase [1],180 nM
O=C(O)CCC(CP(=O)(O)c1ccc(F)cc1)C(=O)O (centres unmarked),Ki,NAALADase [1],532 nM
CP(=O)(O)CC(CCC(=O)O)C(=O)O (centres unmarked),Ki,NAALADase [1],1100 nM
O=C(O)CCC(CP(=O)(O)Cc1ccccc1F)C(=O)O (centres unmarked),Ki,NAALADase [1],145 nM
Cc1ccc(P(=O)(O)CC(CCC(=O)O)C(=O)O)cc1 (centres unmarked),Ki,NAALADase [1],204 nM
O=C(O)CCCC(CP(=O)(O)O)C(=O)O (centres unmarked),Ki,NAALADase [1],185 nM
O=C(O)CCC(CP(=O)(O)Cc1ccc(OCc2ccccc2)cc1)C(=O)O (centres unmarked),Ki,NAALADase [1],177 nM
O=C(O)CCC(CP(=O)(O)Cc1ccccc1C(F)(F)F)C(=O)O (centres unmarked),Ki,NAALADase [1],92 nM
O=C(O)CCC(CP(=O)(O)Cc1ccc(O)cc1)C(=O)O (centres unmarked),Ki,NAALADase [1],117 nM
O=C(O)CC(CP(=O)(O)O)C(=O)O (centres unmarked) [2-(phosphonomethyl)succinic acid],Ki,NAALADase [1],700 ± 67.3 nM
same,NAALADase inhibiting activity (comparison in words),NAALADase [1],much lower NAALADase inhibiting activity
O=C(O)CCC(CP(=O)(O)CCC(=O)O)C(=O)O (centres unmarked) [2-[[(2-carboxyethyl)hydroxyphosphinyl]methyl]pentanedioic acid],Ki,NAALADase [1],1.89 ± 0.19 nM
same,NAALADase inhibiting activity (comparison in words),NAALADase [1],lower NAALADase inhibiting activity
"CN1CC=C(c2ccccc2)CC1 [MPTP, reference compound]",loss of functional dopaminergic terminals as compared to non-lesioned mice,MPTP lesioned mice; MPTP and vehicle,approximately 68%
same,Percent Strial TH Innervation Density (mean ± SEM),"MPTP lesioned mice; MPTP/vehicle, MPTP 30 mg/kg IP for 5 days",7.82 ± 0.68%
"CC(=O)N[C@@H](CC(=O)O)C(=O)N[C@@H](CCC(=O)O)C(=O)O [NAAG, N-acetyl-aspartyl-glutamate] (Ac-Asp-Glu-OH)",% Toxicity,cortical cell cultures [2]; NAAG 3 μM,3.51 (n = 1) %
same,% Toxicity,cortical cell cultures [2]; NAAG 10 μM,4.30 ± 3.12 (n = 3) %
same,% Toxicity,cortical cell cultures [2]; NAAG 30 μM,11.40 ± 6.17 (n = 3) %
same,% Toxicity,cortical cell cultures [2]; NAAG 100 μM,12.66 ± 5.50 (n = 3) %
same,% Toxicity,cortical cell cultures [2]; NAAG 300 μM,13.50 ± 4.0 (n = 3) %
same,% Toxicity,cortical cell cultures [2]; NAAG 1 mM,21.46 ± 4.20 (n = 3) %
same,% Toxicity,cortical cell cultures [2]; NAAG 3 mM,45.11 ± 4.96 (n = 3) %
same,Km,NAALADase [3],0.54 µM
"N[C@H](C(=O)O)[C@H](O)C(=O)O [THA, threohydroxyaspartate, reference compound]",ChAT Activity (% of Control),[4],0 % of Control
O=C(O)CCC(CP(=O)(O)Cc1ccccc1)C(=O)O (centres unmarked) [drawing 18],Ki,NAALADase [1],34.1 nM
O=C(O)CCC(CP(=O)(O)c1ccccc1)C(=O)O (centres unmarked) [drawing 19],Ki,NAALADase [1],35.8 nM
CCCCP(=O)(O)CC(CCC(=O)O)C(=O)O (centres unmarked) [drawing 21],Ki,NAALADase [1],113 nM
O=C(O)CCC(CP(=O)(O)CCc1ccccc1)C(=O)O (centres unmarked) [drawing 23],Ki,NAALADase [1],148 nM
O=C(O)CCC(CP(=O)(O)CCCc1ccccc1)C(=O)O (centres unmarked) [drawing 24],Ki,NAALADase [1],232 nM
Cc1ccc(CP(=O)(O)CC(CCC(=O)O)C(=O)O)cc1 (centres unmarked) [drawing 27],Ki,NAALADase [1],68 nM
O=C(O)CCC(CP(=O)(O)Cc1ccc(F)cc1)C(=O)O (centres unmarked) [drawing 28],Ki,NAALADase [1],70 nM
O=C(O)CCC(CP(=O)(O)Cc1c(F)c(F)c(F)c(F)c1F)C(=O)O (centres unmarked) [drawing 31],Ki,NAALADase [1],22.7 nM
O=C(O)C(CCc1ccccc1)CP(=O)(O)O (centres unmarked) [drawing 33],Ki,NAALADase [1],199 nM
O=C(O)CCC(CP(=O)(O)Cc1cccc(C(F)(F)F)c1)C(=O)O (centres unmarked) [drawing 36],Ki,NAALADase [1],22.5 nM
O=C(O)CCC(CP(=O)(O)O)C(=O)O (centres unmarked) [drawing 39],EC50,cortical cell cultures [5],0.67 nM
O=C(O)C(CCc1ccccc1)CP(=O)(O)O (centres unmarked) [drawing 40],EC50,cortical cell cultures [5]; [6],373 nM
O=C(O)CCC(CP(=O)(O)Cc1cccc(C(F)(F)F)c1)C(=O)O (centres unmarked) [drawing 41],EC50,cortical cell cultures [5]; [6],112 nM
O=C(O)CCC(CP(=O)(O)Cc1ccccc1)C(=O)O (centres unmarked) [drawing 42],EC50,cortical cell cultures [5]; [6],132 nM
O=C(O)CCC(CP(=O)(O)c1ccccc1)C(=O)O (centres unmarked) [drawing 43],EC50,cortical cell cultures [5]; [6],100 nM
O=C(O)CCC(CP(=O)(O)C(O)c1ccccc1)C(=O)O (centres unmarked) [drawing 44],EC50,cortical cell cultures [5]; [6],767 nM
CCCCP(=O)(O)CC(CCC(=O)O)C(=O)O (centres unmarked) [drawing 45],EC50,cortical cell cultures [5]; [6],794 nM
Cc1ccc(CP(=O)(O)CC(CCC(=O)O)C(=O)O)cc1 (centres unmarked) [drawing 46],EC50,cortical cell cultures [5]; [6],37 nM
O=C(O)CCC(CP(=O)(O)Cc1ccc(F)cc1)C(=O)O (centres unmarked) [drawing 47],EC50,cortical cell cultures [5]; [6],79 nM
O=C(O)CCC(CP(=O)(O)Cc1c(F)c(F)c(F)c(F)c1F)C(=O)O (centres unmarked) [drawing 48],EC50,cortical cell cultures [5]; [6],2 nM
O=C(O)CCC(CP(=O)(O)CCc1ccccc1)C(=O)O (centres unmarked) [drawing 49],EC50,cortical cell cultures [5]; [6],834 nM
O=C(O)CCC(CP(=O)(O)CCCc1ccccc1)C(=O)O (centres unmarked) [drawing 50],EC50,cortical cell cultures [5]; [6],4320 nM
COc1ccc(CP(=O)(O)CC(CCC(=O)O)C(=O)O)cc1 (centres unmarked) [drawing 51],EC50,cortical cell cultures [5]; [6],1670 nM
